# In patent publication US11130762B2, “Azaaryl derivative, preparation method therefor, and application thereof for use in pharmacy” (Abbisko Therapeutics Co., Ltd., priority 2017, dated 2021):
# Read-outs that look alike come from different tables or passages of the source.
# Assays:
# CSF-1R = CSF-1R (Homo sapiens, UniProt P07333); assay: CSF-1R in vitro biochemical kinase study (ADP-Glo assay); conditions: 500 μM ATP, * = average of multiple tests, read-out: Enzymatic experiment CSF1R IC50
# Method: A. CSF-1R In Vitro Biochemical Kinase Study
# In the present invention, the inhibitory activity of compounds against the CSF-1R activity was determined by using CSF-1R ADP-Glo assay. The compound-mediated inhibition effect was achieved by inhibiting the production of ADP from consumption of ATP, and the activities of compounds were evaluated by using the ADP-Glo kit (Promega, cat. No. V9101). The specific experimental process was as follows:
# 1. The kinase reaction performed in the present invention was carried out in a 384-well plate (Perkinelmer, cat. No. 6007290), 3.95 nM of CSF-1R, 500 μM of ATP, and 0.2 mg/mL of polypeptide (Poly (Glu4, Try1), Sigma, cat. No. P0275) were respectively weighed and added to each well:
# 2. following reagents were then added to each well to reach the final reaction system: 40 mM Tris, pH 7.5, 20 mM MgCl2, 0.01% Triton X-100, 0.1 mg/mL BSA, 2.5 mM DTT, and 0.1% DMSO;
# 3. the reaction was conducted at 30° C. for 60 min;
# 4. then an equal volume of stop solution (ADP-Glo) was added to the kinase reaction system;
# 5. the mixed solution was incubated at 25° C. for 60 min, and the kinase reaction was then terminated;
# 6. a two-fold volume of detection reagent was then added to each well;
# 7. the mixed solution was incubated at 25° C. for 30 min;
# 8. the compound IC50 value was measured by using a plate reader (Tecan, M1000) and a four-parameter curve was generated in Graphpad Prism.
# [1] = test system: M-NFS-60 mouse myeloid leukemia lymphocytes; assay: CSF-1R-related cell proliferation experiment (Cell Titer Glo), M-NFS-60 cells with M-CSF; type: cell-based; conditions: Lymphocyte, 72 h, 3 days, CTG, * = average of multiple tests
# Method: C. CSF-1R-Related Cell Proliferation Experiment
# Functional effects of compounds on cell proliferation were evaluated by using Cell Titer Glo (CTG) study in the present invention. M-NFS-60 mouse myeloid leukemia lymphocytes (cat. No. CCBJ078) from National Institutes For Food and Drug Control were cultured in the incubator under conditions of RPMI 1640 (Gibco, cat. No. 11875-119), 10% fetal bovine serum (Gibco, 10099-141), human 10 ng/mL M-CSF macrophage colony-stimulating factor (R&D, cat. No. MVN0915101), 37° C., and 5% CO2. Since ATP is an index for viable cell metabolism, CTG (Promega, #G7573) reagent is a homogeneous detection method for detecting the number of viable cells in the culture by quantifying ATP. Therefore, compound-mediated inhibition for cell proliferation/survival was evaluated by quantifying ATP content in cells, and the specific experimental process was as follows:
# 1. The cells were plated into a tissue-culture-medium-treated 96-well plate (Costar #3904) with 5,000 cells/well/80 μL fresh culture medium;
# 2. 24 hours later, 10 μL culture medium containing testing compound with 10-fold of final concentration was added to each well;
# 3. 10 μL of culture medium containing M-CSF with 10-fold of the final concentration was then added to each well;
# 4. dosage effect was evaluated by testing the 3-fold serial dilutions of the compound;
# 5. after the cells were incubated for 3 days at 37° C. and 5% CO2, the inhibition on cell survival was quantified after 50 μL of CTG was added and the luminescence assay was performed;
# 6. the compound concentration leading to half maximal inhibitory (IC50) and the compound concentration leading to absolute half maximal inhibitory (Absolute IC50) were measured by a plate reader (M1000, Tecan) and a four-parameter curve fit in Graphpad Prism 7.
# [2] = test system: MV-4-11 human acute monocytic leukemia cells; assay: Cell proliferation (Cell Titer Glo), MV-4-11 cells (FLT3); type: cell-based; conditions: MV4-11, 72 h, 3 days, CTG, * = average of multiple tests, read-out: Cytological experiment FLT3 IC50
# Method: D. CSF-1R-Related Cell Proliferation Experiment
# Functional effects of compounds on the proliferation of several cell lines were evaluated by Cell Titer Glo (CTG) studies in the present invention, and effects of the compounds on the proliferation of different cells were evaluated to determine the selectivity degree of the compounds. In the experiment, M-07e human cytomegalic leukemia cells (cat. No. CBP60791) from Nanjing Kebai Biotechnology Co., Ltd. were cultured in an incubator under conditions of RPMI1640 (Gibco, cat. No. 11875-119), 20% fetal bovine serum (Gibco, 10099-141), human 10 ng/mL GM-CSF granulocyte macrophage colony-stimulating factors (R&D, cat. No. 215-GM-010), 37° C., and 5% CO2; and Kasumi-1 human acute myeloblastic leukemia cells (cat. No. CBP60524) were cultured in an incubator under conditions of RPMI1640 (Gibco, cat. No. 11875-119), 20% fetal bovine serum (Gibco, 10099-141), 37° C., and 5% CO2: NCI-H1703 human non-small cell lung squamous carcinoma cells (cat. No. CBP60115) were cultured in an incubator under conditions of RPMI1640 (Gibco, cat. No. 11875-119), 10% fetal bovine serum (Gibco, 10099-141), 37° C., and 5% CO2; MV-4-11 human acute monocytic leukemia cells (cat. No. CBP60522) were cultured in an incubator under conditions of IMDM (Invitrogen, cat. No. 12440053), 20% fetal bovine serum (Gibco, 10099-141), 37° C., and 5% CO2. Since ATP is an index for viable cell metabolism, CTG (Promega, #G7573) reagent is a homogeneous detection method for detecting the number of viable cells in the culture by quantifying ATP. Therefore, compound-mediated inhibition for cell proliferation/survival was evaluated by quantifying ATP content in cells, and the specific experimental process was as follows.
# III) MV-4-11 Human Acute Monocytic Leukemia Cell
# 1. The cells were inoculated into a tissue-culture-medium-treated 96-well plate (Costar #3904) with 5000 cells/well/90 μL fresh culture medium, and cultured for 24 hrs:
# 2. the next day, 10 μL of culture medium containing testing compound with 10-fold of final concentration was added to each well;
# 3. the dosage effect was evaluated by testing 3-fold serial dilutions of the compound, which started from 18 μM;
# 4. after the cells were incubated for 3 days at 37° C. and 5% CO2, the inhibition on cell survival was quantified after 50 μL of CTG was added and the luminescence assay was performed;
# 5. the compound concentration leading to half maximal inhibitory (IC50) and the compound concentration leading to absolute half maximal inhibitory (Absolute IC50) were measured by a plate reader (M1000, Tecan) and a four-parameter curve fit in Graphpad Prism 7.
# [3] = read-out: Cytological experiment CSF1R IC50
# [4] = absolute half maximal inhibition, read-out: Cytological experiment CSF-1R Absolute IC50
# Sequence of CSF-1R (P07333 20-972): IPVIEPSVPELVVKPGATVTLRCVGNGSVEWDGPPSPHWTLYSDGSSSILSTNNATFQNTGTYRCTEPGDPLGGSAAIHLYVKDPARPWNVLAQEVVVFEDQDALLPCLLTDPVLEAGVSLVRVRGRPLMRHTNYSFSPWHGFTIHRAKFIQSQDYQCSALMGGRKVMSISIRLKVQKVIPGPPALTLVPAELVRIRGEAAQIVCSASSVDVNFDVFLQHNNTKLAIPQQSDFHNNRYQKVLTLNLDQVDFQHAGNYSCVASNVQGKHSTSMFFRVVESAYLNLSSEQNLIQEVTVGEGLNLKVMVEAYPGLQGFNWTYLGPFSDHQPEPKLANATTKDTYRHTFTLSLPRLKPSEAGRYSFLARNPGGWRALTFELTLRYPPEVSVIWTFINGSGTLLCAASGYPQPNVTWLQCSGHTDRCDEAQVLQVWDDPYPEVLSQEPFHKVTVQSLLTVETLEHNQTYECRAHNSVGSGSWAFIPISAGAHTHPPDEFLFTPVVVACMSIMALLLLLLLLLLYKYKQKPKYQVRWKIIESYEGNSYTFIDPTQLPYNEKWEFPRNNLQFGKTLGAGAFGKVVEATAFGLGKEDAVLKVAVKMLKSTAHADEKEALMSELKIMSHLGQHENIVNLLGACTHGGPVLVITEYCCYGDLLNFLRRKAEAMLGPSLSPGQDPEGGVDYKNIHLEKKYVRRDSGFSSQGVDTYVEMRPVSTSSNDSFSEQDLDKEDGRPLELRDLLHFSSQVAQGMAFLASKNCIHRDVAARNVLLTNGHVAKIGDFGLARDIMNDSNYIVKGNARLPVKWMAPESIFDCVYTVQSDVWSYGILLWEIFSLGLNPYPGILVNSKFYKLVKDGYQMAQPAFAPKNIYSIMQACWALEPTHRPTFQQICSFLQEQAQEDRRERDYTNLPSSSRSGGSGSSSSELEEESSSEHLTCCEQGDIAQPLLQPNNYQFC
IC50 (CSF-1R) [nM],"IC50 [1, 3] [nM]","IC50 [1, 4] [nM]",IC50 [2] [nM],SMILES
73.7,101,95.6,> 6000,"Cc1nc(-c2cnc3n(c2=O)CCCN3C)ccc1Oc1ccnc(-c2cnn(C)c2)c1 [Example 1, 9-methyl-3-(6-methyl-5-((2-(1-methyl-1H-pyrazol-4-yl)pyridin-4-yl)oxy)pyridin-2-yl)-6,7,8,9-tetrahydro-4H-pyrimido[1,2-a]pyrimidin-4-one]"
90.7,38,20.2,1810,CCN1CCCn2c1ncc(-c1ccc(Oc3ccnc(-c4cnn(C)c4)c3)c(C)n1)c2=O [Example 4]
